What was measured:
[1] = molecular target: T1, cytoplasmic dynein purified from bovine brain (Bos taurus, UniProt A0A3Q1NEU9); assay: Microtubule surface gliding assay, dynein; type: biochemical; conditions: for dynein-dependent microtubule movement (gliding velocity): 100 μM; for IC50: dynein-dependent microtubule gliding in vitro, read-out: IC50 of microtubule gliding inhibition
T1 construct: Cytoplasmic dynein was purified from bovine brain tissue; from tissue; host or cells: bovine brain
Description: To more directly examine whether cytoplasmic dynein is the direct target of the ciliobrevins, we evaluated their effects on dynein-dependent microtubule gliding in vitro. Cytoplasmic dynein was purified from bovine brain tissue, adsorbed onto glass slides, and then incubated with fluorescently labeled microtubules and ATP in the presence or absence of these compounds. We then imaged and quantified the resulting microtubule gliding velocities by epifluorescence microscopy.
Cytoplasmic dynein was purified from bovine brains as described by Bingham et al. [Methods Enzymol. 298, 171 (1998)]. K560, a 560-amino acid N-terminal fragment of human conventional kinesin (kinesin-1) with a C-terminal His-tag, was expressed in bacteria and purified as described by Woehlke et al., [Cell 90, 207 (1997)]. Motility assays were performed on a Zeiss Axiovert 200M wide-field microscope equipped with a Zeiss 100×/1.45 NA α-Plan-Fluar objective. Data were captured with an EM-CCD camera (iXon DU-897, Andor Technology) with a 0.3-second exposure time and frame rate of 0.5 second^−1. Microtubule gliding assays were performed as described by Kapoor and Mitchison [Proc. Natl. Acad. Sci. U.S.A. 96, 9106 (1999)] with some modifications. An approximately 6 μL flow chamber was filled with motor protein (100 μg/mL dynein or 50 μg/mL K560) in motor dilution buffer (80 mM Pipes, 1 mM EGTA, 2 mM MgCl2, 2 mM DTT, 50 μM ATP, pH 6.8 with KOH). After a 2-minute incubation, excess protein was washed out with […] of PEM80 buffer (80 mM Pipes, 1 mM EGTA, 2 mM MgCl2, pH 6.8 with KOH) and the surface was blocked against non-specific microtubule binding by filling the chamber with blocking protein (0.5 mg/mL α-casein for dynein experiments and 1 mg/mL BSA for K560 experiments) in motor dilution buffer. After 2 minutes the chamber was perfused with 18 μL of reaction mix (PEM80, 40 mM KCl, blocking protein [1 mg/mL a-casein for dynein experiments; 1 mg/mL BSA for K560 experiments], 2 mM MgATP, 20 μM taxol, 0.1 μM rhodamine-labeled microtubules, oxygen depletion system [4 mM DTT, 2 mM glucose, 40 μg/mL glucose oxidase, 35 μg/mL catalase], 2.5% DMSO, and test compounds as appropriate). The flow chamber was then sealed with valap. After allowing the microtubules to bind to the surface for 5 minutes, the gliding microtubules were visualized by time-lapse fluorescence microscopy. Velocities were measured by kymography using Metamorph software (Molecular Devices), and the velocity for each microtubule was determined from the total distance during the time observed.
For washout experiments, the chamber was left unsealed after the initial reaction mix containing inhibitor was added. Microtubules were allowed to bind to the surface for 5 minutes, and then a time-lapse movie was acquired. The inhibitor was then washed out of the chamber by flowing in 20 μL of fresh reaction mix (PEM80, 40 mM KCl, 1 mg/mL α-casein, 2 mM MgATP, 20 μM taxol, oxygen depletion system, and 2.5% DMSO) without additional microtubules or inhibitor. The chamber was sealed, and additional time-lapse movies were acquired.

[2] = tested on: Hh pathway (Gli-responsive firefly luciferase reporter in Shh-LIGHT2 cells); assay: Shh-LIGHT2 assay for Hh pathway activity; type: cell-based; conditions: 10% Shh-conditioned medium, 24 hours, firefly/Renilla luciferase ratio
Description: Shh-N-conditioned medium was prepared as described by Chen et al., Proc. Natl. Acad. Sci. U.S.A. 99, 14071 (2002). Shh-LIGHT2 cells [J. Taipale et al., Nature 406, 1005 (2000)], an NIH-3T3-based cell line containing a stably integrated Gli-responsive firefly luciferase reporter and a constitutive thymidine kinase promoter-driven Renilla luciferase expression construct (pRLTK, Promega), were cultured in DMEM containing 10% calf serum. 100 U/mL penicillin, and 0.1 mg/mL streptomycin. The cells were seeded into 96-well plates at a density of 30,000 cells/well, and the following day they were treated with individual compounds or DMSO in DMEM containing 0.5% calf serum, 10% Shh-conditioned medium, and the antibiotics described above. After being cultured for another 24 hours, the cells were lysed and their firefly and Renilla luciferase activities were determined using, a dual luciferase reporter kit (Promega) and a microplate luminometer (Veritas). Average values representing the firefly luciferase/Renilla luciferase ratio from triplicate samples were used to construct dose response profiles for each compound. Dose-response data from three separate experiments were independently curve-fitted with a variable slope, sigmoidal dose-response algorithm using Prism software, and the resulting IC50 values were used to generate an average IC50 for each compound.

T1 sequence (A0A3Q1NEU9 1-4657): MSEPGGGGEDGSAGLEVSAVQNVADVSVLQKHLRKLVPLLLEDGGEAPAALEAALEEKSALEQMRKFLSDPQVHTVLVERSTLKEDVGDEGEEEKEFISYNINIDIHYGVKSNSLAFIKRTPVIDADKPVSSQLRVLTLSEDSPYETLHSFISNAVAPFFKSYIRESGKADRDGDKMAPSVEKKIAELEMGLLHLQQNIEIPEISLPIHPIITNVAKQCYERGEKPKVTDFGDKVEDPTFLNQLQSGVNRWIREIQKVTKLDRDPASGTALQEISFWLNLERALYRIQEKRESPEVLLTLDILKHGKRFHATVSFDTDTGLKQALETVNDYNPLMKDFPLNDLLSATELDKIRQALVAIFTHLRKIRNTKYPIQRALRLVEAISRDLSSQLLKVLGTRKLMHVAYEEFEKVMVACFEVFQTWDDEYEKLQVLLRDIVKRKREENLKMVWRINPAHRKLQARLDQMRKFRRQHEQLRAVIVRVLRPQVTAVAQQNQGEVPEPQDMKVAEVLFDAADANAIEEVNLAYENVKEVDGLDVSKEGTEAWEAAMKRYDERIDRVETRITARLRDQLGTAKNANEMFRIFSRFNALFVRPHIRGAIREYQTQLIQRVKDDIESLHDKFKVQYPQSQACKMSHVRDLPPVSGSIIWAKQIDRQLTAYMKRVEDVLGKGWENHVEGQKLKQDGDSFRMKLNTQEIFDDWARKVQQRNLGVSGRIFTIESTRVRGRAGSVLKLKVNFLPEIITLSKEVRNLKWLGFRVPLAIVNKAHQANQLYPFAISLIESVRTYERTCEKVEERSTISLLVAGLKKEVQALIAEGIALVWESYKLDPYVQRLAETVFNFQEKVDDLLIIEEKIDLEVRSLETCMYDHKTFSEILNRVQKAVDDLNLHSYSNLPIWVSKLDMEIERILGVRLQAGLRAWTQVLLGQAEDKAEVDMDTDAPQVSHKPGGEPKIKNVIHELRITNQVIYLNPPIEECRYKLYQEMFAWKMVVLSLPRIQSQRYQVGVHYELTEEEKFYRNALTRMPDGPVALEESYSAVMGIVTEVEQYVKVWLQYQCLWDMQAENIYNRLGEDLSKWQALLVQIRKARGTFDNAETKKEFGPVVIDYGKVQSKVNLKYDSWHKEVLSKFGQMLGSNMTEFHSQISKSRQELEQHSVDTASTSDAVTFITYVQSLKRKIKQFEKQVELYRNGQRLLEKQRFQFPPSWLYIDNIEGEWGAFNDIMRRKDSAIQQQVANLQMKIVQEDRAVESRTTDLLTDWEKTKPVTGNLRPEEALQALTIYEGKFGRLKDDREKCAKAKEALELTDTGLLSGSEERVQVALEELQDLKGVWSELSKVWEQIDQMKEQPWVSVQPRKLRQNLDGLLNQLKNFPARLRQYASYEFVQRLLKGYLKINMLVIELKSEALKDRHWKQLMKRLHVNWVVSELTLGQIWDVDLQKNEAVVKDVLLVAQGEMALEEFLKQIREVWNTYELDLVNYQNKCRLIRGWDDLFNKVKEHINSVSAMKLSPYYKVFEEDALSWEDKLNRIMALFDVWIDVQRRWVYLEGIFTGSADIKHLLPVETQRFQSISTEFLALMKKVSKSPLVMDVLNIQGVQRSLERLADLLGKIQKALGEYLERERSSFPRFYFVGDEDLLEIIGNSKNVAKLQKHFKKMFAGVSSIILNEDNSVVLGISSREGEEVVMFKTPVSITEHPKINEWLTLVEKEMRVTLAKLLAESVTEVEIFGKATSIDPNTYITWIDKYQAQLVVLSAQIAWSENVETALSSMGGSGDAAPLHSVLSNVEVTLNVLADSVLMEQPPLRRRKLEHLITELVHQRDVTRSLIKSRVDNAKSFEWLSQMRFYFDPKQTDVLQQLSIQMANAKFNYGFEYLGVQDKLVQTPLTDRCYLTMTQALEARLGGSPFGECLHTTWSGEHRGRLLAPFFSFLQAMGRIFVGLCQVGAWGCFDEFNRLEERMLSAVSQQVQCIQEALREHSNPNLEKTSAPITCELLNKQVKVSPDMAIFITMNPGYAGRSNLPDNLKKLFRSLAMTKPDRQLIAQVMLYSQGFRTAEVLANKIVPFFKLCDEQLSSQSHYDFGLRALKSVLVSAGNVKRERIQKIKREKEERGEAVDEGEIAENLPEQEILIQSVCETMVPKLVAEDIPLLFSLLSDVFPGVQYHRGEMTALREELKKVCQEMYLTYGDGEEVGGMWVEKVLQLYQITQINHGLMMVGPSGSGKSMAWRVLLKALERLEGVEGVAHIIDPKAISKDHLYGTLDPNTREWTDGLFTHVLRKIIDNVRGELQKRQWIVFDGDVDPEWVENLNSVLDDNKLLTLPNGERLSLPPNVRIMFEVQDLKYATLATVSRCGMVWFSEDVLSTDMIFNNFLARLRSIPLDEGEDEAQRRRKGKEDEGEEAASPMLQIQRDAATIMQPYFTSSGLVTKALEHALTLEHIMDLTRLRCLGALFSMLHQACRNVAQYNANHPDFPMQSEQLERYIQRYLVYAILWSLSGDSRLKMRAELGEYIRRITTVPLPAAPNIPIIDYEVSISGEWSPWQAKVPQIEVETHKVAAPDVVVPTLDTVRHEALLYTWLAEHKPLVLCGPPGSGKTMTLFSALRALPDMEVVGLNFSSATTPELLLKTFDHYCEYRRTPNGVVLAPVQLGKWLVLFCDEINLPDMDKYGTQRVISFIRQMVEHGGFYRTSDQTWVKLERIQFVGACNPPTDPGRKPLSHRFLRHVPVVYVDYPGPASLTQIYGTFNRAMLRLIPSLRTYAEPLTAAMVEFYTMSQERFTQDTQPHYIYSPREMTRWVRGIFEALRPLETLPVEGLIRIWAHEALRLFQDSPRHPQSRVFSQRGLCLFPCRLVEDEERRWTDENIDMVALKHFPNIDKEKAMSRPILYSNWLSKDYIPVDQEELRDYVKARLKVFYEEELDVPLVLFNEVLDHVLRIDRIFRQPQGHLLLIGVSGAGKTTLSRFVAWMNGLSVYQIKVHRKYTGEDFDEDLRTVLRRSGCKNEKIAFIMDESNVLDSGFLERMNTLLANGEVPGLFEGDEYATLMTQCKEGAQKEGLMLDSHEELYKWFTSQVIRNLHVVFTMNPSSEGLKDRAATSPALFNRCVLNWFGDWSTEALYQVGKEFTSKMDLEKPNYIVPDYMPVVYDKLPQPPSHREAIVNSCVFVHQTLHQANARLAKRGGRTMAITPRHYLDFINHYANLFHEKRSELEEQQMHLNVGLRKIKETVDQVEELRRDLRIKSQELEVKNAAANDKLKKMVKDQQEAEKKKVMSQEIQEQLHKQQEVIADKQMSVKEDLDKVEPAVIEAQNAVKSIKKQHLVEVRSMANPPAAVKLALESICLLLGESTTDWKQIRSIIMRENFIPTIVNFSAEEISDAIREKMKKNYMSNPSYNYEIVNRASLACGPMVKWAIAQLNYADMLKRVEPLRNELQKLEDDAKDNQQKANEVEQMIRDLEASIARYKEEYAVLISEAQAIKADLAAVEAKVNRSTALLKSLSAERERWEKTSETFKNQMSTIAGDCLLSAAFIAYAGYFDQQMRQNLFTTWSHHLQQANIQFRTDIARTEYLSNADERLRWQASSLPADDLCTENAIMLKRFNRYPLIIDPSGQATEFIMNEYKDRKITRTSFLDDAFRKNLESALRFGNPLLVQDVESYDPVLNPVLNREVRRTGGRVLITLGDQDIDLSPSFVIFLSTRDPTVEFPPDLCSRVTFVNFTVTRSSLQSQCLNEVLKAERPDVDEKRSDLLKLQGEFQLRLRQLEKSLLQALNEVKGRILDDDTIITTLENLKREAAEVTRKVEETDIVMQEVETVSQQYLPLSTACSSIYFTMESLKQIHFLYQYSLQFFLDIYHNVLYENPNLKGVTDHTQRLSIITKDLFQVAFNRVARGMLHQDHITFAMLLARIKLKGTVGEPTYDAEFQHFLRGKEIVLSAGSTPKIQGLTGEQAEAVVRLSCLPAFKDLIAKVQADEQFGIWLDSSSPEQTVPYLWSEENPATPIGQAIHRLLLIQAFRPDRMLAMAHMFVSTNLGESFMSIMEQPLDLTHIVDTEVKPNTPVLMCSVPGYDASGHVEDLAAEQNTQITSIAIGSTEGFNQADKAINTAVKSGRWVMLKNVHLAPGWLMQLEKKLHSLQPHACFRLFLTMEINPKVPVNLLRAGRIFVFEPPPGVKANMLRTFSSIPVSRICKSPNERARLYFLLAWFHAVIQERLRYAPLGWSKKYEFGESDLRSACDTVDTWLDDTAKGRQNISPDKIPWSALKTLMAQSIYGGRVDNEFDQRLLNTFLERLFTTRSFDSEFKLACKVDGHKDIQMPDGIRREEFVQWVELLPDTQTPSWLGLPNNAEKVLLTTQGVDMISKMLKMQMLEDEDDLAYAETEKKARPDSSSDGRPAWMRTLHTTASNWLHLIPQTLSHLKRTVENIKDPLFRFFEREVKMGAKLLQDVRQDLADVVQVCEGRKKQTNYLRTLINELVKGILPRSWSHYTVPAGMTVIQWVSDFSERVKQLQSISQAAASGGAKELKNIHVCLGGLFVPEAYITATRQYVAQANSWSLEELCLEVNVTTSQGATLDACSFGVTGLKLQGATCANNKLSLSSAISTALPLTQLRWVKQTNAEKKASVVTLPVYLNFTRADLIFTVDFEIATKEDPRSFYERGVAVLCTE

dynein-dependent microtubule movement (gliding velocity) [1] | IC50 [1] [µM] | SMILES | IC50 [2] [µM]
at least five-fold | 30 | N#C/C(C(=O)c1ccc(Cl)cc1Cl)=C1\NC(=O)c2ccccc2N1 [Example 1, 3-(2,4-dichlorophenyl)-3-oxo-2-(4-oxo-3,4-dihydroquinazolin-2(1H)-ylidene)propanenitrile] | 9.9
minimal effects | – | N#C/C(C(=O)c1ccc(Cl)cc1)=C1\NC(=O)c2ccccc2N1 [Example 2, 3-(4-chlorophenyl)-3-oxo-2-(4-oxo-3,4-dihydroquinazolin-2(1H)-ylidene)propanenitrile] | 5.2
minimal effects | – | N#C/C(C(=O)c1ccccc1)=C1\NC(=O)c2ccccc2N1 [Example 16, 3-oxo-2-(4-oxo-3,4-dihydroquinazolin-2(1H)-ylidene)-3-phenylpropanenitrile] | 23
at least five-fold | 40 | N#C/C(C(=O)c1ccc(Cl)cc1Cl)=C1\NC(=O)c2ccc(Cl)cc2N1 [Example 31, 2-(7-chloro-4-oxo-3,4-dihydroquinazolin-2(1H)-ylidene)-3-(2,4-dichlorophenyl)-3-oxo-propanenitrile] | 15

From patent US9145376B2, “Quinazolinone inhibitors of dynein” (The Rockefeller University, priority 2011, dated 2015)
